Measurements taken from ChEMBL document CHEMBL1149347, “Fatty acid synthase inhibitory activity of acylphloroglucinols isolated from Dryopteris crassirhizoma” (Bioorg Med Chem Lett, 2006).

Columns and labels:
Fatty acid synthase [1] = target: T1, Fatty acid synthase (Homo sapiens, UniProt P49327); test: Inhibition of FAS
Target sequence in this assay (P49327 whole entry): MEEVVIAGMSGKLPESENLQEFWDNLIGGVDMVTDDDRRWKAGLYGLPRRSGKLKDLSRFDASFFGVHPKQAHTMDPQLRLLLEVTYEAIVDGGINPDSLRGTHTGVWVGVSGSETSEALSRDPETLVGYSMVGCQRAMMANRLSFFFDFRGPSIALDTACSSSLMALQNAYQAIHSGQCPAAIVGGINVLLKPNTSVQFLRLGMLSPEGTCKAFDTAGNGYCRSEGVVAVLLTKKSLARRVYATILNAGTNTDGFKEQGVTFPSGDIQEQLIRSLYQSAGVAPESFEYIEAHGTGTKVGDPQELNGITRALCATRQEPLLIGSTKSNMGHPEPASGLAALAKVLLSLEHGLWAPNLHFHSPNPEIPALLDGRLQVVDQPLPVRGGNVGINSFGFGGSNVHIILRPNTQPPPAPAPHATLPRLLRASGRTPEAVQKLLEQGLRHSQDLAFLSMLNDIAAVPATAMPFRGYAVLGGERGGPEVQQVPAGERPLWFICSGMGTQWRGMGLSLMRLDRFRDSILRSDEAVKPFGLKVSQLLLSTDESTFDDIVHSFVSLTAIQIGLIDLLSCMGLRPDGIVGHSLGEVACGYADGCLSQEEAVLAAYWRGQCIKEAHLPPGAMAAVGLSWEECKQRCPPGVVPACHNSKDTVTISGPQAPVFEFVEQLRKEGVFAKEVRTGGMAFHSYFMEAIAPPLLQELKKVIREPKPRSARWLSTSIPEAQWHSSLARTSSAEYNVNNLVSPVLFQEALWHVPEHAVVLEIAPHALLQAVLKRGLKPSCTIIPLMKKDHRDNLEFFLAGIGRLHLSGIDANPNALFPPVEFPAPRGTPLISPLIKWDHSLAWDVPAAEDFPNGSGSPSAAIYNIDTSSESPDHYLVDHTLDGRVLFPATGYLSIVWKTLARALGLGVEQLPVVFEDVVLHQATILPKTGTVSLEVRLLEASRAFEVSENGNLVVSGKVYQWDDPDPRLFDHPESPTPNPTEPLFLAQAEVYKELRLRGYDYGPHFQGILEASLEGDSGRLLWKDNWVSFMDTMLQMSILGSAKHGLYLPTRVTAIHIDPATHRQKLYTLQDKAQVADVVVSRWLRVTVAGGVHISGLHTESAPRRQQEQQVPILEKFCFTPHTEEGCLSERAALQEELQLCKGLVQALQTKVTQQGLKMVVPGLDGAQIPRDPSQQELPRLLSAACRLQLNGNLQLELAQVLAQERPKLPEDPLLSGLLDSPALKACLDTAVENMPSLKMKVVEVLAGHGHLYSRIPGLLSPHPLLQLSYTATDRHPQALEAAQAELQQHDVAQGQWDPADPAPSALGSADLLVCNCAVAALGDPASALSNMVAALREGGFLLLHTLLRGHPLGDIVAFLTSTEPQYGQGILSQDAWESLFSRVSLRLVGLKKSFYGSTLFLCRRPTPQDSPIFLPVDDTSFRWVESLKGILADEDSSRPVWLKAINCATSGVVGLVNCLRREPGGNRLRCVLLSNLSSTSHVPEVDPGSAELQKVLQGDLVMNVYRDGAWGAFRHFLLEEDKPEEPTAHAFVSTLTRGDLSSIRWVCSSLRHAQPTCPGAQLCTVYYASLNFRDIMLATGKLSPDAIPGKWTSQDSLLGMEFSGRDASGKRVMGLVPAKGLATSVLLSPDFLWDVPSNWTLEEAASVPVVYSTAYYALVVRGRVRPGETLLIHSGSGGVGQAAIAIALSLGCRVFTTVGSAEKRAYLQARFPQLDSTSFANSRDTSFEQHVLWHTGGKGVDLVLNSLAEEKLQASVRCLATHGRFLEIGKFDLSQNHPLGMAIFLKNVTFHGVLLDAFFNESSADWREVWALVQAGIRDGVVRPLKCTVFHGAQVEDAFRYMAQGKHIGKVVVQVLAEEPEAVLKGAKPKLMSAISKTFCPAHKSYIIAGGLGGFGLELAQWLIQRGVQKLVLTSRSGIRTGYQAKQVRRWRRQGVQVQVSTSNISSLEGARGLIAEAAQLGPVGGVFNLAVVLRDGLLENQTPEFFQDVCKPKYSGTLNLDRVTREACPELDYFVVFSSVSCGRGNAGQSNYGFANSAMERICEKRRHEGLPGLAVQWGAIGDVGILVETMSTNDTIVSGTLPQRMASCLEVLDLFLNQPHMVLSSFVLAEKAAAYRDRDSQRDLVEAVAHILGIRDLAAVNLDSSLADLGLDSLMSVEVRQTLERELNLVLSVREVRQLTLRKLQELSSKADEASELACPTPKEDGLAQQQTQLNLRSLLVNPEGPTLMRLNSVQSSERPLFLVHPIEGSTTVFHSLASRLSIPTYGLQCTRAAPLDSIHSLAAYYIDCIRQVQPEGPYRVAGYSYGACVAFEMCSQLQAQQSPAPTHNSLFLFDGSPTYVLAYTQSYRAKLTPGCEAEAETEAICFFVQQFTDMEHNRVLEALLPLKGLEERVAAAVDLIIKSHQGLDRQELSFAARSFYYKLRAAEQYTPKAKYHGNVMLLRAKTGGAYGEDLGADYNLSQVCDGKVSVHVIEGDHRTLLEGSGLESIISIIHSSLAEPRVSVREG

Fatty acid synthase [2] = target: T1, Fatty acid synthase; test: Inhibition of FAS at 100 uM
Target sequence in this assay (P49327 whole entry, looked up): as the sequence (P49327 whole entry) above

IC50 (Fatty acid synthase [1]) | Compound | inhibition (Fatty acid synthase [2])
29.7 µM | CCCC(=O)C1=C(O)CC(O)=C(CC2=C(O)C(C)(C)C(O)=C(C(C)=O)C2=O)C1=O | 
32.6 µM | CCCC(=O)C1=C(OC)C(C)C(O)=C(CC2=C(O)C(C)(C)C(O)=C(C(=O)CCC)C2=O)C1=O (stereo unspecified) | 
60.2 µM | CCC(=O)C1=C(O)C(C)(C)C(O)=C(CC2=C(O)C(C)(C)C(O)=C(C(=O)CC)C2=O)C1=O | 
23.1 µM | CCCC(=O)C1=C(O)C(C)C(O)=C(CC2=C(O)C(C)(C)C(O)=C(C(=O)CC)C2=O)C1=O (stereo unspecified) | 
28.7 µM | CCCC(=O)C1=C(O)C(C)C(O)=C(CC2=C(O)C(C)(C)C(O)=C(C(C)=O)C2=O)C1=O (stereo unspecified) | 
49.1 µM | CCCC(=O)c1c(O)cc(OC)c(C)c1O | 
56.1 µM | CCCC(=O)C1=C(O)C(C)(C)C(O)=C(CC2=C(O)C(C)(C)C(O)=C(C(=O)CC)C2=O)C1=O | 
25.4 µM | CCCC(=O)c1c(O)c(C)c(O)c(Cc2c(O)c(C)c(O)c(C(=O)CCC)c2O)c1O | 
31 µM | CCCC(=O)c1c(O)c(CC2=C(O)C(C)(C)C(O)=C(C(C)=O)C2=O)c(O)c(CC2=C(O)C(C)(C)C(O)=C(C(=O)CC)C2=O)c1O | 
71.7 µM | CCC(=O)C1=C(O)C(C)(C)C(O)=C(CC2=C(O)C(C)(C)C(O)=C(C(C)=O)C2=O)C1=O | 
> 100 µM | O=c1c(O)c(-c2ccccc2)oc2ccccc12 [FLAVONOL] | 6.5%

Compound | IC50 (Fatty acid synthase [1]) | inhibition (Fatty acid synthase [2])
C/C=C/C/C=C/CCC(=O)[C@H]1O[C@H]1C(N)=O [CERULENIN] | 13 µM | 
Oc1cc(O)c2c(c1)O[C@H](c1ccc(O)c(O)c1)[C@H](O)C2 [(-)-EPICATECHIN] | > 100 µM | 10.2%
O=c1cc(-c2ccc(O)c(O)c2)oc2cc(O)cc(O)c12 [LUTEOLIN] | 62.5 µM | 
